Test results: paper PMC8129133, “Polymer-free corticosteroid dimer implants for controlled and sustained drug delivery” (Nature Communications, 2021)

Experiment: Tolerability study of intravitreal implants (IOP, IR fundus imaging, histopathology)
Assay type: in vivo
Procedure: Tolerability study. The tolerability study was conducted at Absorption Systems California (San Diego, CA, USA) under the same animal care and ethics guidelines and approval systems as indicated above in the Pharmacodynamics section. […] Animals were anesthetized with intramuscular ketamine hydrochloride (30–32 mg/kg) and xylazine (5–10 mg/kg), with glycopyrrolate (0.01–0.02 mg/kg, intramuscular) administered concurrently. Eyes were prepped with 1–2 drops of topical proparacaine hydrochloride (0.5%). Prior to implant or sham treatment, eyes received one drop of 10% phenylephrine and 1% tropicamide. 5% betadine solution was used to clean the eye and surrounding area. Group 1 underwent a sham injection procedure, while Group 2 and Group 3 were administered 2× and 3× 30 G × 6 mm Dex-TEG-Dex implants via intravitreal injection, respectively. […] IOP measurements were performed on both eyes at baseline and designated timepoints up to 52 weeks thereafter using a pneumotonometer. Eyes received 1–2 drops of topical proparacaine hydrochloride (0.5%) prior to IOP measurements, and measurements were taken at approximately the same time of day (±2 h). Wide angle infrared (IR) imaging was performed at baseline and at designated timepoints using a Heidelberg Spectralis® imaging platform. Prior to imaging, eyes were dilated with 1 drop each of 10% phenylephrine and 1% tropicamide. […] Animals were euthanized via pentobarbital overdose (150 mg/kg, intravenous).
Histopathology. […] Eyes were then transferred to 70% ethanol. Eyes were embedded in paraffin and sectioned using a microtome. Five sections were generated from each eye and stained with hematoxylin and eosin (H&E). All stained sections were microscopically evaluated by an ACVP veterinary pathologist.

C[C@@H]1C[C@H]2[C@@H]3CCC4=CC(=O)C=C[C@]4(C)[C@@]3(F)[C@@H](O)C[C@]2(C)[C@@]1(O)C(=O)COC(=O)OCCOCCOCCOC(=O)OCC(=O)[C@@]1(O)[C@H](C)C[C@H]2[C@@H]3CCC4=CC(=O)C=C[C@]4(C)[C@@]3(F)[C@@H](O)C[C@@]21C [Dex-TEG-Dex]
IR fundus images (two and three implant eyes, baseline and 3, 6, 9, 12 months): unremarkable | tolerability (two or three 30 G × 6 mm implants intravitreally, 12 months): well tolerated | histopathology findings (two or three 30 G × 6 mm implants, H&E): no microscopic or macroscopic findings
